Source: patent US20260287586A1, “METHODS OF TREATING TKI-RESISTANT AND SDH-DEFICIENT GIST” (priority 2023, published 2026)
“And” between values parts separate entries of the source, which are not always exact repeats. Identical values can stand only once. “Also recorded” adds a separate entry of the source.

Tests used:
[1] = Phase 1 trial HQP1351-SJ-0003 of olverembatinib: safety (adverse events, DLT, MTD/RP2D); assay type: in vivo, human; details: for Abdominal pain, treatment-emergent AE / Anemia, treatment-emergent AE / Constipation, treatment-emergent AE / Fatigue, treatment-emergent AE / Hyperuricemia, treatment-emergent AE / Increased alanine aminotransferase, treatment-emergent AE / Increased aspartate aminotransferase, treatment-emergent AE / Increased leukocyte count, treatment-emergent AE / Increased neutrophil count, treatment-emergent AE / Pyrexia, treatment-emergent AE: all patients N = 66
Text: The dose escalation aspect of the study enrolled patients with advanced and/or metastatic GIST or other solid tumors that were refractory or had relapsed after treatment with at least one TKI.
Eligible patients were adults (≥18 years) who had advanced and/or metastatic GISTs or other solid tumors confirmed by histology and/or cytology. The definition of SDH-deficient GIST was based on pathological phenotype with negative immunohistochemical staining for SDHB. Also required for study enrollment were Eastern Cooperative Oncology Group performance status (ECOG PS)≤2; and adequate renal, hepatic, cardiac, and bone marrow function. A full list of inclusion and exclusion criteria is in the protocol. Enrollment trends, ongoing review of study data, and evolving knowledge regarding the GIST treatment paradigm informed the study sponsor's medical director's and investigators' decision to analyze the SDH-deficient GIST patient subgroup separately.
Based on encouraging initial activity and favorable tolerability (Qiu, H., et al., J. Clin. Oncol. 40, 11513 (2022)), additional patients with SDH-deficient GIST were enrolled to further explore efficacy, and patients with TKI-naïve SDH-deficient GIST and adolescent patients (aged 12-18 years old) with SDH-deficient GIST were permitted. After data from the dose-escalation part of the study were reviewed during a meeting of the principal investigators and a postmarket dose was recommended to treat CML, all adult patients received 40 mg QOD (determined RP2D dose), and adolescent patients received 20 to 40 mg QOD based on body weight. If body weight was at least 40 kg, patients received 40 mg QOD; if within 30-40 kg, 30 mg QOD; and, if within 20-30 kg, 20 mg QOD. Patients with SDH-deficient malignant paraganglioma who had failed at least one treatment and were without appropriate treatment (as judged by investigators) were also enrolled. Treatment could continue until precluded by toxicity, noncompliance, withdrawal of consent, physician decision, progressive disease, death, or closure of the study. All protocol modifications, including those increasing the number of patients and cohorts in the dose-expansion aspect, are established in the trial protocol version dated May 27, 2022.
Physical examination and adverse events (AEs) were evaluated at each follow-up visit (day −28~day −1 after signed informed consent form); on days 1, 8, 15, and 22 during cycles 1 and 2; and on days 1 and 15 in cycle 3 and all subsequent cycles, up to 30 days after the final dose. All AEs were graded according to the US National Cancer Institute (NCI) Common Terminology Criteria for Adverse Events (CTCAE; version 4.03). Clinical laboratory investigations for routine blood examinations and serum chemistry parameters were performed during every cycle (on day 1); cycles 1 and 2 (on days 8, 15, and 22); and 30 days after the last dose of treatment. Urinalysis, coagulation, cardiac troponin I/T, lipase, amylase, and electrocardiograms were done at baseline; during cycles 1 and 2 (on days 1 and 15); cycle 3, 5, 7, and 9; every 3 cycles after cycle 9 (on day 1); and 14 days after the last dose of treatment. All patients underwent tumor imaging for response assessment via computed tomography or magnetic resonance imaging at screening and every two cycles (8 weeks) until progression or discontinuation. Target and nontarget lesions were assessed per Response Evaluation Criteria in Solid Tumors version 1.1 (RECIST v1.1).
The data cutoff for this analysis was Dec. 27, 2023. The safety population included all patients who received at least one dose of olverembatinib. The SDH-deficient GIST population (prespecified subgroup) included patients in the safety population. MTD was defined as the highest dose level with no more than one dose-limiting toxicity in six patients.

[2] = system: OS-RC-2 (SDHB-deficient) and 785-O (SDHB-competent) renal carcinoma cells; assay: Cell colony formation assay; assay type: cell-based; details: 7 days (SDHB-competent line), 10 days (OS-RC-2); FIG. 2B right
Description: Cells were extracted from SDH-deficient patient tumor tissues, seeded into 96-well plates, and incubated for 24 hours in GIST culture medium. […] Right panel, Colony formation assay in renal carcinoma cells 7860 (SDHB-wild-type) and OS-RC-2 (SDHB-deficient). Cells were seeded into 6-well plates and incubated overnight in complete culture medium.
For the colony formation assay, 1,000 cells were plated in 6-well plates per well, incubated for 7 to 14 days, then stained with 0.1% crystal violet and colony numbers counted.

[3] = reported in ≥2 patients, N = 66

Cc1ccc(C(=O)Nc2ccc(CN3CCN(C)CC3)c(C(F)(F)F)c2)cc1C#Cc1cnc2[nH]ncc2c1 [Olverembatinib, olverembatinib]
dose-limiting toxicities ([1]; 20-50 mg QOD): No dose-limiting toxicities were reported; also recorded: No dose-limiting toxicity was observed | maximum tolerated dose (MTD) ([1]; 20-50 mg QOD): not reached | dose reductions due to TRAEs ([1]; N = 66): dose reductions in two patients | patients who experienced grade ≥3 TRAEs ([1]; N = 66): 13.6% | patients who experienced treatment-related adverse events (TRAEs) ([1]; N = 66): 93.9% | treatment-related serious adverse events ([1]; N = 66): 7.6% | Anemia, treatment-related serious AE ([1]; N = 66, value is N): 2 N (%) | Coronary sclerosis, treatment-related serious AE ([1]; N = 66, value is N): 1 N (%) | Intestinal obstruction, treatment-related serious AE ([1]; N = 66, value is N): 1 N (%) | Leukemoid reaction, treatment-related serious AE ([1]; N = 66, value is N): 1 N (%) | subjects who experienced treatment-emergent adverse events (TEAEs) ([1]; all 66 subjects, oral 20-50 mg QOD): 100.0% | Abdominal pain, treatment-related AE ([1]; any grade, N = 66, value is N): 3 N (%) | Anemia, treatment-related AE ([1]; any grade, N = 66, value is N): 9 N (%) | Constipation, treatment-related AE ([1]; any grade, N = 66, value is N): 23 N (%) | Coronary sclerosis, treatment-related AE ([1]; any grade, N = 66, value is N): 1 N (%) | Decreased neutrophil count, treatment-related AE ([1]; any grade, N = 66, value is N): 3 N (%) | Fatigue, treatment-related AE ([1]; any grade, N = 66, value is N): 18 N (%) | Hypertension, treatment-related AE ([1]; any grade, N = 66, value is N): 3 N (%) | Hyperuricemia, treatment-related AE ([1]; any grade, N = 66, value is N): 12 N (%) | Hypoalbuminemia, treatment-related AE ([1]; any grade, N = 66, value is N): 10 N (%) | Increased CRP, treatment-related AE ([1]; any grade, N = 66, value is N): 11 N (%) | Increased WBC count, treatment-related AE ([1]; any grade, N = 66, value is N): 27 N (%) | Increased alanine aminotransferase, treatment-related AE ([1]; any grade, N = 66, value is N): 20 N (%) | Increased aspartate aminotransferase, treatment-related AE ([1]; any grade, N = 66, value is N): 23 N (%) | Increased creatinine, treatment-related AE ([1]; any grade, N = 66, value is N): 9 N (%) | Increased neutrophil count, treatment-related AE ([1]; any grade, N = 66, value is N): 22 N (%) | Increased platelet count, treatment-related AE ([1]; any grade, N = 66, value is N): 7 N (%) | Intestinal obstruction, treatment-related AE ([1]; any grade, N = 66, value is N): 2 N (%) | Leukemoid reaction, treatment-related AE ([1]; any grade, N = 66, value is N): 1 N (%) | Melanocytic nevi, treatment-related AE ([1]; any grade, N = 66, value is N): 15 N (%) | Abdominal pain, treatment-emergent AE ([1]; any grade): 15 N (%) and 15 (22.7) N (%) | Anemia, treatment-emergent AE ([1]; any grade): 31 N (%) and 31 (47.0) N (%) | Constipation, treatment-emergent AE ([1]; any grade): 27 N (%) and 27 (40.9) N (%) | Fatigue, treatment-emergent AE ([1]; any grade): 20 (30.3) N (%) | Hyperuricemia, treatment-emergent AE ([1]; any grade): 31 (47.0) N (%) | Increased alanine aminotransferase, treatment-emergent AE ([1]; any grade): 25 N (%) and 25 (37.9) N (%) | Increased aspartate aminotransferase, treatment-emergent AE ([1]; any grade): 31 N (%) and 31 (47.0) N (%) | Increased leukocyte count, treatment-emergent AE ([1]; any grade): 32 N (%) and 32 (48.5) N (%) | Increased neutrophil count, treatment-emergent AE ([1]; any grade): 25 N (%) and 25 (37.9) N (%) | Pyrexia, treatment-emergent AE ([1]; any grade): 28 N (%) and 28 (42.4) N (%) | Abdominal pain, treatment-related AE ([1]; grades 3-5, N = 66, value is N): 1 N (%) | Anemia, treatment-related AE ([1]; grades 3-5, N = 66, value is N): 1 N (%) | Constipation, treatment-related AE ([1]; grades 3-5, N = 66, value is N): 0 N (%) | Coronary sclerosis, treatment-related AE ([1]; grades 3-5, N = 66, value is N): 1 N (%) | Decreased neutrophil count, treatment-related AE ([1]; grades 3-5, N = 66, value is N): 2 N (%) | Fatigue, treatment-related AE ([1]; grades 3-5, N = 66, value is N): 1 N (%) | Hypertension, treatment-related AE ([1]; grades 3-5, N = 66, value is N): 1 N (%) | Hyperuricemia, treatment-related AE ([1]; grades 3-5, N = 66, value is N): 0 N (%) | Hypoalbuminemia, treatment-related AE ([1]; grades 3-5, N = 66, value is N): 0 N (%) | Increased CRP, treatment-related AE ([1]; grades 3-5, N = 66, value is N): 0 N (%) | Increased WBC count, treatment-related AE ([1]; grades 3-5, N = 66, value is N): 0 N (%) | Increased alanine aminotransferase, treatment-related AE ([1]; grades 3-5, N = 66, value is N): 1 N (%) | Increased aspartate aminotransferase, treatment-related AE ([1]; grades 3-5, N = 66, value is N): 1 N (%) | Increased creatinine, treatment-related AE ([1]; grades 3-5, N = 66, value is N): 0 N (%) | Increased neutrophil count, treatment-related AE ([1]; grades 3-5, N = 66, value is N): 0 N (%) | Increased platelet count, treatment-related AE ([1]; grades 3-5, N = 66, value is N): 0 N (%) | Intestinal obstruction, treatment-related AE ([1]; grades 3-5, N = 66, value is N): 1 N (%) | Leukemoid reaction, treatment-related AE ([1]; grades 3-5, N = 66, value is N): 1 N (%) | Melanocytic nevi, treatment-related AE ([1]; grades 3-5, N = 66, value is N): 0 N (%) | Abdominal pain, treatment-emergent AE ([1]; grades 3-5): 1 (1.5) N (%) | Anemia, treatment-emergent AE ([1]; grades 3-5): 4 (6.1) N (%) | Constipation, treatment-emergent AE ([1]; grades 3-5): 0 N (%) | Fatigue, treatment-emergent AE ([1]; grades 3-5): 1 (1.5) N (%) | Hyperuricemia, treatment-emergent AE ([1]; grades 3-5): 1 (1.5) N (%) | Increased alanine aminotransferase, treatment-emergent AE ([1]; grades 3-5): 2 (3.0) N (%) | Increased aspartate aminotransferase, treatment-emergent AE ([1]; grades 3-5): 2 (3.0) N (%) | Increased leukocyte count, treatment-emergent AE ([1]; grades 3-5): 0 N (%) | Increased neutrophil count, treatment-emergent AE ([1]; grades 3-5): 0 N (%) | Pyrexia, treatment-emergent AE ([1]; grades 3-5): 0 N (%) | patients who required treatment interruption ([1]; of 66 patients): 31.8% | RP2D ([1]; on alternate days (QOD)): 40 mg | tolerability ([1]; patients in the phase 1 trial): well tolerated | Anemia, serious treatment-emergent AE [1, 3]: 2 (3.0) N (%) | Intestinal obstruction, serious treatment-emergent AE [1, 3]: 5 (7.6) N (%) | inhibition of clone formation, OS-RC-2 versus 785-O [2]: more significantly inhibited
